Data as given in patent publication US8192962B2, “Processes for detecting toxic substances” (Daikin Industries, Ltd., priority 2001, dated 2012).

Tested on: Energy system protein genes
Assay: DNA chip mRNA expression in yeast, energy system protein genes (Table 4)
Assay type: cell-based, Saccharomyces cerevisiae S288C
Summary of the method: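 Cells were grown at 25° C. in YPD, treated at logarithmic phase for 2 h with a chemical at a concentration inhibiting growth but not causing death, and compared with untreated cultures. Labeled cDNA was hybridized to a DNA chip carrying all yeast genes, and the expression ratio was taken from scanner fluorescence.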

SMILES: C=CC=O [(14), acrolein]
- The level of expressed mRNA in the presence of chemical substance/The level of expressed mRNA in the absence of chemical substance (yeast gene YJR048W): 2.5
- The level of expressed mRNA in the presence of chemical substance/The level of expressed mRNA in the absence of chemical substance (yeast gene YJR121W, cells incubated two hours with the chemical substance): 0.7
- The level of expressed mRNA in the presence of chemical substance/The level of expressed mRNA in the absence of chemical substance (yeast gene YJR155W): 9.4
- The level of expressed mRNA in the presence of chemical substance/The level of expressed mRNA in the absence of chemical substance (yeast gene YKL016C, cells incubated two hours with the chemical substance): 1.6
- The level of expressed mRNA in the presence of chemical substance/The level of expressed mRNA in the absence of chemical substance (yeast gene YKL060C, cells incubated two hours with the chemical substance): 0.8
- The level of expressed mRNA in the presence of chemical substance/The level of expressed mRNA in the absence of chemical substance (yeast gene YKL141W, cells incubated two hours with the chemical substance): 1.4
- The level of expressed mRNA in the presence of chemical substance/The level of expressed mRNA in the absence of chemical substance (yeast gene YKL148C, cells incubated two hours with the chemical substance): 0.8
- The level of expressed mRNA in the presence of chemical substance/The level of expressed mRNA in the absence of chemical substance (yeast gene YKL150W): 1.4
- The level of expressed mRNA in the presence of chemical substance/The level of expressed mRNA in the absence of chemical substance (yeast gene YKR009C, cells incubated two hours with the chemical substance): 1.0
- The level of expressed mRNA in the presence of chemical substance/The level of expressed mRNA in the absence of chemical substance (yeast gene YKR058W, cells incubated two hours with the chemical substance, 25° C., YPD medium): 1.3
- The level of expressed mRNA in the presence of chemical substance/The level of expressed mRNA in the absence of chemical substance (yeast gene YKR097W): 2.1
- The level of expressed mRNA in the presence of chemical substance/The level of expressed mRNA in the absence of chemical substance (yeast gene YLL041C, cells incubated two hours with the chemical substance): 1.2
- The level of expressed mRNA in the presence of chemical substance/The level of expressed mRNA in the absence of chemical substance (yeast gene YLR038C, cells incubated two hours with the chemical substance): 1.6
- The level of expressed mRNA in the presence of chemical substance/The level of expressed mRNA in the absence of chemical substance (yeast gene YLR044C, cells incubated two hours with the chemical substance): 0.5
- The level of expressed mRNA in the presence of chemical substance/The level of expressed mRNA in the absence of chemical substance (yeast gene YLR134W, cells incubated two hours with the chemical substance): 0.6
- The level of expressed mRNA in the presence of chemical substance/The level of expressed mRNA in the absence of chemical substance (yeast gene YLR258W, cells incubated two hours with the chemical substance): 1.2
- The level of expressed mRNA in the presence of chemical substance/The level of expressed mRNA in the absence of chemical substance (yeast gene YLR284C, cells incubated two hours with the chemical substance): 1.3
- The level of expressed mRNA in the presence of chemical substance/The level of expressed mRNA in the absence of chemical substance (yeast gene YLR295C, cells incubated two hours with the chemical substance, 25° C., YPD medium): 1.2
- The level of expressed mRNA in the presence of chemical substance/The level of expressed mRNA in the absence of chemical substance (yeast gene YLR304C, cells incubated two hours with the chemical substance): 0.7
- The level of expressed mRNA in the presence of chemical substance/The level of expressed mRNA in the absence of chemical substance (yeast gene YLR345W): 1.5
- The level of expressed mRNA in the presence of chemical substance/The level of expressed mRNA in the absence of chemical substance (yeast gene YLR354C, cells incubated two hours with the chemical substance): 0.9
- The level of expressed mRNA in the presence of chemical substance/The level of expressed mRNA in the absence of chemical substance (yeast gene YLR377C, cells incubated two hours with the chemical substance): 2.9
- The level of expressed mRNA in the presence of chemical substance/The level of expressed mRNA in the absence of chemical substance (yeast gene YLR395C, cells incubated two hours with the chemical substance): 1.7
- The level of expressed mRNA in the presence of chemical substance/The level of expressed mRNA in the absence of chemical substance (yeast gene YML087C): 2.1
- The level of expressed mRNA in the presence of chemical substance/The level of expressed mRNA in the absence of chemical substance (yeast gene YML120C, cells incubated two hours with the chemical substance): 0.8
- The level of expressed mRNA in the presence of chemical substance/The level of expressed mRNA in the absence of chemical substance (yeast gene YML129C, cells incubated two hours with the chemical substance): 1.4
- The level of expressed mRNA in the presence of chemical substance/The level of expressed mRNA in the absence of chemical substance (yeast gene YMR073C, cells incubated two hours with the chemical substance): 2.0
- The level of expressed mRNA in the presence of chemical substance/The level of expressed mRNA in the absence of chemical substance (yeast gene YMR118C): 0.9
- The level of expressed mRNA in the presence of chemical substance/The level of expressed mRNA in the absence of chemical substance (yeast gene YMR205C, cells incubated two hours with the chemical substance): 0.5
- The level of expressed mRNA in the presence of chemical substance/The level of expressed mRNA in the absence of chemical substance (yeast gene YMR261C, cells incubated two hours with the chemical substance): 0.6
- The level of expressed mRNA in the presence of chemical substance/The level of expressed mRNA in the absence of chemical substance (yeast gene YMR267W, cells incubated two hours with the chemical substance, 25° C., YPD medium): 1.0
- The level of expressed mRNA in the presence of chemical substance/The level of expressed mRNA in the absence of chemical substance (yeast gene YMR323W, cells incubated two hours with the chemical substance): 1.2
- The level of expressed mRNA in the presence of chemical substance/The level of expressed mRNA in the absence of chemical substance (yeast gene YNL071W): 0.8
- The level of expressed mRNA in the presence of chemical substance/The level of expressed mRNA in the absence of chemical substance (yeast gene YNL202W, cells incubated two hours with the chemical substance): 1.0
- The level of expressed mRNA in the presence of chemical substance/The level of expressed mRNA in the absence of chemical substance (yeast gene YNL241C): 1.1
- The level of expressed mRNA in the presence of chemical substance/The level of expressed mRNA in the absence of chemical substance (yeast gene YNL331C): 7.5
- The level of expressed mRNA in the presence of chemical substance/The level of expressed mRNA in the absence of chemical substance (yeast gene YOL086C, cells incubated two hours with the chemical substance): 0.6
- The level of expressed mRNA in the presence of chemical substance/The level of expressed mRNA in the absence of chemical substance (yeast gene YOL165C): 9.1
- The level of expressed mRNA in the presence of chemical substance/The level of expressed mRNA in the absence of chemical substance (yeast gene YOR142W, cells incubated two hours with the chemical substance): 0.8
- The level of expressed mRNA in the presence of chemical substance/The level of expressed mRNA in the absence of chemical substance (yeast gene YOR178C, cells incubated two hours with the chemical substance): 1.0
- The level of expressed mRNA in the presence of chemical substance/The level of expressed mRNA in the absence of chemical substance (yeast gene YOR388C, cells incubated two hours with the chemical substance): 1.3
- The level of expressed mRNA in the presence of chemical substance/The level of expressed mRNA in the absence of chemical substance (yeast gene YPL031C, cells incubated two hours with the chemical substance): 0.9
- The level of expressed mRNA in the presence of chemical substance/The level of expressed mRNA in the absence of chemical substance (yeast gene YPL061W, cells incubated two hours with the chemical substance): 0.6
- The level of expressed mRNA in the presence of chemical substance/The level of expressed mRNA in the absence of chemical substance (yeast gene YPL088W): 1.6
- The level of expressed mRNA in the presence of chemical substance/The level of expressed mRNA in the absence of chemical substance (yeast gene YPL171C): 9.3
- The level of expressed mRNA in the presence of chemical substance/The level of expressed mRNA in the absence of chemical substance (yeast gene YPL240C): 0.7
- The level of expressed mRNA in the presence of chemical substance/The level of expressed mRNA in the absence of chemical substance (yeast gene YPL262W, cells incubated two hours with the chemical substance): 1.2
- The level of expressed mRNA in the presence of chemical substance/The level of expressed mRNA in the absence of chemical substance (yeast gene YPL275W, cells incubated two hours with the chemical substance): 1.0
- The level of expressed mRNA in the presence of chemical substance/The level of expressed mRNA in the absence of chemical substance (yeast gene YPL276W, cells incubated two hours with the chemical substance): 0.9
- The level of expressed mRNA in the presence of chemical substance/The level of expressed mRNA in the absence of chemical substance (yeast gene YPR048W, cells incubated two hours with the chemical substance): 1.2
- The level of expressed mRNA in the presence of chemical substance/The level of expressed mRNA in the absence of chemical substance (yeast gene YPR184W, cells incubated two hours with the chemical substance): 1.3
